Data reported in paper PMC9230797, “Integration of a Physiologically Based Pharmacokinetic and Pharmacodynamic Model for Tegoprazan and Its Metabolite: Application for Predicting Food Effect and Intragastric pH Alterations” (Pharmaceutics, 2022).
“And” between values parts separate entries of the source, which are not always exact repeats. Equal values may be shown once.

Columns and labels:
[1] = weak base; cited from earlier work
[2] = PBPK model prediction of plasma PK (SimCYP simulator); design: species or system human
From the text: The tegoprazan and M1 PBPK models were developed using SimCYP® simulator, version 20 (Certara, Princeton, NJ, USA). Compound libraries were incorporated into an in vitro dataset, including the microsomal clearance of tegoprazan and M1. Observed PK parameters were obtained from the aforementioned clinical studies (Table 1 and Table 2).
The absorption of tegoprazan was applied to the advanced dissolution, absorption, and metabolism (ADAM) model, and the diffusion layer model (DLM) built into SimCYP® was applied to the considered formulation and pH-dependent solubility of tegoprazan. The permeability of tegoprazan was determined by a Caco-2 permeability assay and optimized by parameter estimation. Caco-2 permeability was optimized such that the predicted concentration–time profiles were fitted to clinical study data. The metabolite was generated by the metabolism of the parent drug; therefore, absorption was not considered.
The tissue distribution in the PBPK model was predicted by the distribution model (e.g., Rodger and Rowland method, Poulin and Theil method) and the tissue:plasma partition coefficient (Kp) scalar for specific organ or global values. Predicted systemic distribution was expressed as the volume of distribution in a steady state (Vss). The Vd values of the clinical study were applied to the initial model of tegoprazan, and parameter estimation was used to determine the optimized Kp scalar fitted to the observed data. The Rodger and Rowland method (method 2) was applied to consider the weak base property and distribution of the neutral and ionic forms. The minimal PBPK model was applied to the M1 distribution module to reduce the complexity. The volume of a single adjusting compartment (Vsac), non-physiological compartment, input rate to SAC (kin), and elimination rate from SAC (kout) were estimated using the parameter estimation module within SimCYP®.
The elimination profiles of tegoprazan and M1 were obtained from in vitro, in vivo, and in silico predictions. Optimized in-house intrinsic clearance for CYPs (CLint,rCYPs), and human liver microsomal and cytosolic (HLM and HLC) clearance were applied to the elimination module of the tegoprazan model. Observed or estimated renal and biliary clearance were applied to the tegoprazan and M1 models. Whole-organ metabolic clearance, using the optimized value for the in vitro assay results, was applied to the M1 model.
The virtual dosing regimen was set to a single oral dose of 100 mg tegoprazan, to match that of the observed data. The simulation conditions were set for 100 virtual subjects who participated in 10 virtual clinical studies (1000 volunteers). The age range was 20 to 40 years, and the male-to-female ratio was 1:1. The predicted and observed PK parameters were compared to evaluate the model prediction results. […] If the predicted vs. observed ratio and its 95% CI were within the 30% range (0.7–1.3), the model was considered to fit well.
Postprandial PK profiles were predicted using an established model. Concentration–time profiles were obtained following a single oral dose (50 mg) of tegoprazan in the fasting state or 30 min after a high-fat diet. The predicted AUClast, Cmax, and Tmax values were compared with those of a previous clinical study.

CYP2C19 = molecular target: T1, CYP2C19 (Homo sapiens, UniProt P33261); assay: Intrinsic clearance using recombinant CYPs: CYP2C19; format: in vitro ADME
T1 construct: purchased Corning Life Sciences (Woburn, MA, USA)
Method: (§1) The elimination profiles of tegoprazan and M1 were assessed using rCYPs. All the assay procedures were performed according to the manufacturer’s instructions. Master mix (1.399 mL), containing the NADPH-generating system, 3.3 mM of glucose 6-phosphate, PBS buffer, deionized water, and each rCYP (25 pmol/μL of CYP2C8, 2C19, and 2E1 and 50 pmol/μL of CYP3A4, 2C9, and 2D6), was added to a microtube and pre-incubated at 37 °C for 5 min. Next, 1 μM tegoprazan and M1 were added and incubated at 37 °C for 0, 5, 10, 20, 30, 45, and 60 min. A total of 100 μL of the sample, incubated for predefined duration, was transferred to a fresh e-tube. Next, 200 μL of acetonitrile containing tegoprazan-d6 (0.5 μM) was added, vortexed for 5 min, and centrifuged at 16,200× g and 4 °C for 10 min. The concentrations of the remaining tegoprazan and M1 were determined by LC–MS/MS. All experiments were performed in duplicate. CLint,rCYP levels were assessed using the results of the disappearance test. […] The CLint resulting from rCYPs was calculated using Equation (3):(3) CLint,rCYP(μL/min/pmol CYP)=0.693/t1/2×1400/concentration of CYP
(§2) Caco-2 and rCYP samples were quantified using LC-MS/MS (UPLC® I-class coupled with TQ-MS (Waters, Milford, MA, USA). The mobile phase comprised (a) 0.1% formic acid and (b) acetonitrile containing 0.1% formic acid. Gradient elution at a flow rate of 0.3 mL/min was applied. Tegoprazan, M1, and the internal standard (tegoprazan-d6) were optimized in electrospray ionization positive mode. Acetonitrile with 0.1 μM of tegoprazan-d6 was added to the collected Caco-2 or rCYP samples. Then, processed samples were centrifuged at 13,000× g for 20 min. After centrifugation, 100 μL of supernatant was transferred to an LC-MS vial and analyzed using LC-MS/MS. […] The stability of tegoprazan was evaluated, and it satisfied the acceptance criteria (coefficient of variances was within 15%) under variable conditions including reinjection, processed sample stability (PSS), and short-term stability for the stock and sample.

CYP2E1 = molecular target: T2, CYP2E1 (Homo sapiens, UniProt P05181); assay: Intrinsic clearance using recombinant CYPs: CYP2E1; format: in vitro ADME
T2 construct: purchased Corning Life Sciences (Woburn, MA, USA)
Method: as §1, §2

[3] = Physicochemical properties (solubility, pKa, LogP, BCS class); settings: from high permeability and low solubility
[4] = At 30 min after a high-fat meal, single 50 mg
[5] = single 100 mg tegoprazan, (95% confidence interval)

T2 sequence (P05181 whole entry): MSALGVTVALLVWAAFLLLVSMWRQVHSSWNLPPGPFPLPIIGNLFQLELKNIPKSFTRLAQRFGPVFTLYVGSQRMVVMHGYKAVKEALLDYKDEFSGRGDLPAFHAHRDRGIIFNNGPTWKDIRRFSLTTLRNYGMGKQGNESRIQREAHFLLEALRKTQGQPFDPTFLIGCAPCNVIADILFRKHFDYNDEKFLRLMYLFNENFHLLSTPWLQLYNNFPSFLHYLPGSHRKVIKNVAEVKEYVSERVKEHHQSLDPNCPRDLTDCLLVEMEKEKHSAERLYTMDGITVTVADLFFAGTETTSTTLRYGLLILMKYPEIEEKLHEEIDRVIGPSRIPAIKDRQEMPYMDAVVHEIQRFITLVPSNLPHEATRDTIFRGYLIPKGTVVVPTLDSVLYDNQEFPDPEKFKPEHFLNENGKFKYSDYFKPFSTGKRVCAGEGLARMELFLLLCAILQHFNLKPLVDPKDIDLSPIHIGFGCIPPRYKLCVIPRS
T1 sequence (P33261 whole entry): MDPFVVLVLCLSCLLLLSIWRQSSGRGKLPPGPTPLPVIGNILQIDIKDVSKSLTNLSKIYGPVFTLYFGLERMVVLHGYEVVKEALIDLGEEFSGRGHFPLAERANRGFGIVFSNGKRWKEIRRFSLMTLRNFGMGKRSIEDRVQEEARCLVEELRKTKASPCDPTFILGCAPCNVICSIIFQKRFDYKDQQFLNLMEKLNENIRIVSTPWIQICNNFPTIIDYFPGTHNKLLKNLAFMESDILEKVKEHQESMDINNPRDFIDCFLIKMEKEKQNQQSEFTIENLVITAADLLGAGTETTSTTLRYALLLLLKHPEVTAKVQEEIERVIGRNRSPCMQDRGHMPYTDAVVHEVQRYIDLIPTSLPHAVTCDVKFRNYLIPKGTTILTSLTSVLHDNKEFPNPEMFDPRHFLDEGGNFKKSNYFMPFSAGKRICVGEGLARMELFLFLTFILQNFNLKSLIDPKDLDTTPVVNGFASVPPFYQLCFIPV

## Cc1nc2cc(C(=O)N(C)C)cc(O[C@H]3CCOc4cc(F)cc(F)c43)c2[nH]1 [tegoprazan]
[1]
  pKa: 5.1
[2]; 100 mg once daily
  increase of predicted Cmax at Day 7 compared with Day 1: approximately 1.84%
[2]; [4]
  AUC0–24 h Ratio (Predicted/Observed): 0.88 (0.43–1.32)
  Cmax Ratio (Predicted/Observed): 0.96 (0.32–1.59)
[2]; Fast, single 50 mg
  AUC0–24 h Ratio (Predicted/Observed): 0.89 (0.45–1.33)
  Cmax Ratio (Predicted/Observed): 0.85 (0.62–1.09)
[2]; single 50 mg
  decrease of predicted mean Cmax after a high-fat diet vs fasted state: 31.3%
[2]; [5]
  AUC0–24 h Ratio (Predicted/Observed): 0.90 (0.85–0.96)
  CL Ratio (Predicted/Observed): 1.25 (1.17–1.34)
  Cmax Ratio (Predicted/Observed): 0.88 (0.80–1.00)
CYP2C19; 1 μM, experimental (initial model value)
  CLint, CYP2C19: 0.61 µL/min/pmol and 0.614 µL/min/pmol
CYP2C19; human, recombinant CYP2C19, rCYP2C19
  half-life at 1 μM: 1.05 h
CYP2C19; rCYP2C19, 1 μM
  Slope (disappearance): -0.011
CYP2E1; 1 μM, experimental data
  CLint, CYP2E1: 0.03 µL/min/pmol and 0.030 µL/min/pmol
CYP2E1; human, recombinant CYP2E1, rCYP2E1
  half-life at 1 μM: 11.6 h
CYP2E1; rCYP2E1, 1 μM
  Slope (disappearance): -0.001
[3]
  biopharmaceutics classification system (BCS) class: class II
